How the values were obtained:
MetAP-2 [1] = target: T1, MetAP-2 (Mus musculus, UniProt O08663); experiment: Free MetAP-2 gel shift assay with fluorescent fumagillin analogue (Compound 3) in tumor and liver tissue of mice bearing B16F10 murine melanoma tumors; type: in vivo, C57BL/6 mice; conditions: 3 or 30 mg/kg PO every other day; samples 24 hours after last dose
T1 construct: from tissue; host or cells: B16F10 murine melanoma tumor and liver of male C57BL/6 mice
Protocol: (§1) Male C57BL/6 mice were divided into six groups of 10 mice each. Each mouse received an implant of 10^6B16F10 murine melanoma cells in 100 μL of PBS above the leg. At day seven following implantation, one group of mice (Group 6) began a regimen of 100 mg/kg Compound 2 every other day, administered oral gavage (PO). At day 13 post implantation, the remaining groups began receiving treatment as follows: Group 1: […] vehicle (11 % hydroxypropyl cyclodextrin) every other day; Group 2: 5-fluorouracil 50 mg/kg in 1% propylene glycol/D5W, PO every other day; Group 3: Compound 2, 3 mg/kg PO every other day; Group 4: Compound 2, 30 mg/kg PO, every other day; Group 5: Compound 2, 100 mg/kg PO, every other day. In each group, the last dose was administered on day 19 post implantation, and blood, spleen, tumor, thymus and liver samples were collected from the mice 24 hours following the last dose.
(§2) The tissue samples were prepared for analysis following the protocols set forth in Example 2 and analyzed for free MetAP-2 using the ELISA protocol of Example 2. The prepared tissue samples were also analyzed for free MetAP-2 activity using the following protocol.
1. Dilute samples in 1.5 mL eppendorf tubes to their desired concentration in lysis buffer in 10 uL volume. See calculations.
2. To each tube, add 1 uL of 10 uM Compound 3stock that has been diluted in lysis buffer.
3. Incubate on ice for 1.0 hours. […]

MetAP-2 [2] = target: T1, MetAP-2; experiment: Free MetAP-2 ELISA in tumor and liver tissue of mice bearing B16F10 murine melanoma tumors; type: in vivo, C57BL/6 mice; conditions: 3 or 30 mg/kg PO every other day; samples 24 hours after last dose
Protocol: as §1, §2
The results of this study are set forth in FIG. 5, which provides a comparison of the results obtained in tumor tissue and liver tissue using the ELISA protocol and those obtained using the gel-shift analysis.

MetAP-2 [3] = target: T2, MetAP-2 (Rattus norvegicus, UniProt P38062); experiment: Free MetAP-2 ELISA (streptavidin plates, Compound 1 capture) in white blood cells and tissues of rats after a single dose, Phase IIa/IIb; type: in vivo, Sprague-Dawley rats
T2 construct: percentage of free MetAP-2 remaining in white blood cells, liver, spleen, lymph nodes and thymus; from tissue; host or cells: white blood cells, liver, spleen, lymph nodes, thymus of Sprague-Dawley rats
T2 sequence (P38062 whole entry): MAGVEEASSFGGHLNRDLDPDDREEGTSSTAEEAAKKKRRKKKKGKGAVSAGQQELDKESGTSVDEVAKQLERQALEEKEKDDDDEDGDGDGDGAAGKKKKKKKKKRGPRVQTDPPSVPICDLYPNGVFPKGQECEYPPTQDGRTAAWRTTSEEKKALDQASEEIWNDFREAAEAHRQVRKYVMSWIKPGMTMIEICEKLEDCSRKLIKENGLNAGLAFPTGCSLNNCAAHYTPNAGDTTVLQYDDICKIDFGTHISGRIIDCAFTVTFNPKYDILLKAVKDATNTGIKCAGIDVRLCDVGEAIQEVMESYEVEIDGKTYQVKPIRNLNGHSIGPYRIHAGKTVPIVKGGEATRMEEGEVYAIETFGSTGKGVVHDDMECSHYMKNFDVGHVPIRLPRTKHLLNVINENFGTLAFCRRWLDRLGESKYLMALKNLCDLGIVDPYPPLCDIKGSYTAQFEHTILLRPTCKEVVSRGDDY
Protocol: Determination of Free MetAP-2 in Rat White Blood Cell Lysates and tissues Following Administration of Compound 2
Preparation of WBC Lysates
Spleen Homogenization and Lysis Procedure
Liver, Thymus and Lymph Nodes Homogenization and Lysis Procedure
Treat 20 μL of each lysate dividing into polypropylene 96-well plates: +Compound 2 Samples (Background Controls): Dilute 40 mM Compound 2 stock 1:4000 for a 10 μM working stock and add 2 μL to background samples for a final concentration of 1 μM Compound 2.
Dilute 40 mM Compound 1 stock 1:4000 for a 10 μM working stock and add 2 μL of diluted to the samples and 5 μL to the rMetAP2 standards for a final concentration of 1 μM; cover, tap gently to mix, and incubate for 1 hr at room temperature without shaking.
Remove the streptavidin plates from 4° C. at least 30 min prior to use Dilute each of the samples 1:10 (180 μL into the 20 μL sample) with PBST and mix well.
Transfer 20 μL and 40 μL aliquots of the diluted samples to streptavidin plates, adding to 30 μL and 10 μL of PBST (for total volumes of 50 μL each), and mix well: duplicate aliquots of each volume for the signal samples (signal sample=−Compound 2) and single aliquots of each volume for the background samples (background samples=+Compound 2).
Cover and incubate the plates at room temperature on plate shaker for 1 hr at medium speed.
Wash 3 times manually with 50 μL of 2% (w/v) SDS. Flick plate briskly over sink to remove 2% SDS. Tap on napkin to blot.
Add 50 μL of 1:500 anti-MetAP2 antibody in PBST using 12 channel pipette, so triplicates receive antibody at same time, cover and incubate at room temp. on plate shaker for 1 hr at medium speed. One plate requires 5 mL of PBST plus 10 μL of anti-MetAP2 antibody.
Add 50 μL of 1:5000 goat anti-rabbit-HRP antibody in PBST using the 12 channel pipette, cover and incubate at room temperature on plate shaker for 1 hr at medium speed. One plate requires 5 mL of PBST plus 1 μL anti-rabbit-HRP antibody. Aliquot 50 μL per well.
10 minutes after adding the TMB substrate, add 100 μL of 1 N H2SO4 and then measure the absorbance at 450 nm.
The purpose of this study was to determine the percentage of free MetAP-2 remaining in white blood cells, liver, spleen, lymph nodes and thymus as a pharmacodynamic marker of Compound 2 activity after a single dose was administered to Sprague-Dawley rats.
A repeat examination of MetAP-2 inhibition in WBCs was conducted with various dose levels of Compound 2, administered either IV or PO in female SD rats. In addition, thymus and liver were collected and snap frozen in liquid nitrogen for MetAP-2 analysis.
At 4, 24, 48, 72, 96, 120 hours post dose whole blood (≧3.0 mL) was taken from anesthetized animals (isoflurane inhalation to effect) via cardiac puncture, using a 20 gauge needle. Blood was immediately placed into EDTA tubes and stored at 4-8° C.
After blood collection animals were sacrificed by CO2 inhalation. The entire thymus and left lateral lobe of the liver were minced, placed into separate tissue cassettes, and snap frozen in liquid nitrogen for future MetAP-2 analysis.
To characterize MetAP-2 turnover in tissues after a single oral administration of Compound 2 and to determine if any sex difference existed.
Blood and tissue samples were collected from SD rats after receiving a single dose of Compound 2. Inhibition of MetAP-2 by Compound 2 was monitored using an ELISA designed to measure the amount of free MetAP-2 in a sample. Cells were lysed and then treated with Compound 1. Compound 1 covalently binds to the active site of MetAP-2 molecules that have not already been derivatized by Compound 2. The resulting biotinylated MetAP-2 is captured onto immobilized streptavidin, then detected with an anti-MetAP-2 antibody and an enzyme-linked secondary antibody. Phase I was used as a pilot study to determine if MetAP-2 inhibition could be monitored in female SD rat white blood cell (WBC) lysates after a single 30 mg/kg dose of Compound 2 administered IV, IP, PO or SC. […]

MetAP-2 [4] = target: T2, MetAP-2; experiment: Phase I pilot free MetAP-2 ELISA (streptavidin beads) in white blood cell lysates after a single dose; type: in vivo, female Sprague-Dawley rats; conditions: single 30 mg/kg dose IV, IP, PO or SC; female SD rats; all routes of administration
Protocol: MetAP-2 inhibition in white blood cells (WBC) was examined after a single dose (30 mg/kg) of Compound 2 , administered either by intravenous (IV), intraperitoneal (IP), oral gavage (PO) or subcutaneous (SC) routes, to female Sprague-Dawley (SD) rats
A ≧1.0 mL whole blood sample was taken from 3 animals/group/time point (4, 24, 48, 72, 96, and 120 hours post dose) for MetAP-2 analysis. Each animal was bled only once by conscious jugular venipuncture. Blood was immediately placed into EDTA tubes and stored at 4-8° C. Two blood smears from each sample were made for possible differential count analysis.
Blood and tissue samples were collected from SD rats after receiving a single dose of Compound 2. Inhibition of MetAP-2 by Compound 2 was monitored using an ELISA designed to measure the amount of free MetAP-2 in a sample. Cells were lysed and then treated with Compound 1. […] The resulting biotinylated MetAP-2 is captured onto immobilized streptavidin, then detected with an anti-MetAP-2 antibody and an enzyme-linked secondary antibody. Phase I was used as a pilot study to determine if MetAP-2 inhibition could be monitored in female SD rat white blood cell (WBC) lysates after a single 30 mg/kg dose of Compound 2 administered IV, IP, PO or SC. […] Following this analysis it was determined that signal from sample replicates were highly variable and the assay required revision. […]

[5] = Phase IIb, 3 mg/kg PO single dose, 48 hr

T1 sequence (O08663 whole entry): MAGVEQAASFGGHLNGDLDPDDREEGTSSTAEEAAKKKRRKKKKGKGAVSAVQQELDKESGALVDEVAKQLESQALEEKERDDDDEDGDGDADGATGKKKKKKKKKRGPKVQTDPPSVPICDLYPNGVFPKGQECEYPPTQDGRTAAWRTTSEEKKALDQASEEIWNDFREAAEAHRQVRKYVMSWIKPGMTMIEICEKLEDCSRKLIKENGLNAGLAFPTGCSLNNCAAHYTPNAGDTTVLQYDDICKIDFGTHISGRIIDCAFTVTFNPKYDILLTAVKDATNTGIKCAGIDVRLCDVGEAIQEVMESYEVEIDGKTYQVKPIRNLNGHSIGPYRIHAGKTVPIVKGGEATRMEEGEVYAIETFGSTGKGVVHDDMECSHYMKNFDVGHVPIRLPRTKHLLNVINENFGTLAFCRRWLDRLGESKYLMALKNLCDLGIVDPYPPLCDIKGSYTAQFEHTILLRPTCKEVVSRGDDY

## CO[C@@H]1[C@H](OC(=O)N[C@@H](C(N)=O)C(C)C)CC[C@]2(CO2)[C@H]1[C@@]1(C)O[C@@H]1CC=C(C)C [Compound 2, (1-Carbamoyl-2-methyl-propyl)-carbamic acid-(3R, 4S, 5S, 6R )-5-methoxy-4-[(2R, 3R)-2-methyl-3-(3-methyl-but-2-enyl)-oxiranyl]-1-oxa-spiro[2.5]oct-6-yl ester]
MetAP-2 [1]
  free MetAP-2 levels in liver tissue relative to controls (gel shift): dose-dependent decrease
  free MetAP-2 levels in tumor tissue relative to controls (gel shift): dose-dependent decrease
MetAP-2 [2]
  free MetAP-2 levels in liver tissue relative to controls (ELISA): dose-dependent decrease
  free MetAP-2 levels in tumor tissue relative to controls (ELISA): dose-dependent decrease
MetAP-2 [3]; Phase IIa, female SD rats, 30 mg/kg PO versus 0.3 and 3 mg/kg PO, single dose
  duration of inhibition of MetAP-2 in WBC: more prolonged inhibition
MetAP-2 [3]; Phase IIb, male and female SD rats, 0.3 and 3 mg/kg PO, single dose
  sex differences in MetAP-2 inhibition: no consistent sex differences
MetAP-2 [3]; Phase IIb, 0.3 mg/kg PO, single dose
  effect on free MetAP-2 levels in tissues other than WBC and liver (spleen, thymus, lymph nodes): no significant effect
MetAP-2 [3]; [5]
  free MetAP-2 level in WBC, average (±SEM): 13%±4%
  free MetAP-2 level in liver, average (±SEM): 13%±5%
  free MetAP-2 level in lymph nodes, average (±SEM): 63%±16%
  free MetAP-2 level in spleen, average (±SEM): 41%±5%
  free MetAP-2 level in thymus tissue: recovered completely
MetAP-2 [3]; Phase IIb, single PO dose, by 72 hr
  recovery of free MetAP-2 in WBC, 3 mg/kg versus 0.3 mg/kg group: recovered to similar free MetAP-2 levels
MetAP-2 [3]; Phase IIb, single PO dose, tissues plotted relative to WBC
  rank order of responsiveness of organs (MetAP-2 inhibition relative to WBC): liver (most inhibited)>spleen≅lymph nodes>thymus
MetAP-2 [3]; groups with no measurable free MetAP-2 in the WBC
  average free MetAP-2 remaining in tissues when no measurable free MetAP-2 in WBC: ≤ 3%
MetAP-2 [3]; rat, Phase IIb, 3 mg/kg PO single dose, four hours after dosing, WBC, liver, spleen, thymus, lymph nodes, read-out: average inhibition of MetAP-2 in all compartments
  inhibition at 3 mg/kg: ≥ 95%
MetAP-2 [4]
  free MetAP-2 signal in WBC lysates: reduction followed by a recovery

— patent US20040265917A1, “Methods of measuring the ability of a test compound to inactivate a biological target in cells of a subject” (priority 2003, published 2004)
